{
  "source": "patent US20260285850A1",
  "about": "“SUBSTITUTED OXAZOLIDINONES AND IMIDAZOLINONES AS HERBICIDES” (FMC CORPORATION, priority 2023, published 2026)",
  "type_in_all_cases": "in vivo",
  "key": {"[1]": {"tested_on": "oat, wild (wild oat, Avena fatua)", "test": "Test A preemergence soil spray, visual injury rating 0-100", "conditions": "10 days, 0 = no effect, 100 = complete control", "outline": "(§1)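 Greenhouse test: loam/sand pots received a surfactant-containing formulation, as a preemergence directed soil spray or a postemergence spray on young plants. Injury was judged visually at day 10 relative to untreated controls.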"}, "[2]": {"tested_on": "ragweed (common ragweed, Ambrosia artemisiifolia)", "test": "Test A preemergence soil spray, visual injury rating 0-100", "conditions": "10 days, 0 = no effect, 100 = complete control", "outline": "as §1"}, "soybean (Glycine max) [3]": {"tested_on": "soybean (Glycine max)", "test": "Test A preemergence soil spray, visual injury rating 0-100", "conditions": "10 days, 0 = no effect, 100 = complete control", "outline": "as §1"}, "[4]": {"tested_on": "blackgrass (Alopecurus myosuroides)", "test": "Test A preemergence soil spray, visual injury rating 0-100", "conditions": "10 days, 0 = no effect, 100 = complete control", "outline": "as §1"}, "[5]": {"tested_on": "ryegrass, Italian (italian ryegrass, Lolium multiflorum)", "test": "Test A preemergence soil spray, visual injury rating 0-100", "conditions": "10 days, 0 = no effect, 100 = complete control", "outline": "as §1"}, "[6]": {"tested_on": "palmer (palmer amaranth, palmer pigweed, Amaranthus palmeri)", "test": "Test A preemergence soil spray, visual injury rating 0-100", "conditions": "10 days, 0 = no effect, 100 = complete control", "outline": "as §1"}, "[7]": {"tested_on": "wheat (Triticum aestivum)", "test": "Test A preemergence soil spray, visual injury rating 0-100", "conditions": "10 days, 0 = no effect, 100 = complete control", "outline": "as §1"}, "kochia (Bassia scoparia) [8]": {"tested_on": "kochia (Bassia scoparia)", "test": "Test A preemergence soil spray, visual injury rating 0-100", "conditions": "10 days, 0 = no effect, 100 = complete control", "outline": "as §1"}, "[9]": {"tested_on": "barnyardgrass (Echinochloa crus-galli)", "test": "Test A preemergence soil spray, visual injury rating 0-100", "conditions": "10 days, 0 = no effect, 100 = complete control", "outline": "as §1"}, "corn (Zea mays) [10]": {"tested_on": "corn (Zea mays)", "test": "Test A preemergence soil spray, visual injury rating 0-100", "conditions": "10 days, 0 = no effect, 100 = complete control", "outline": "as §1"}, "[11]": {"tested_on": "green foxtail (Setaria viridis)", "test": "Test A preemergence soil spray, visual injury rating 0-100", "conditions": "10 days, 0 = no effect, 100 = complete control", "outline": "as §1"}, "[12]": {"tested_on": "ducksalad (Heteranthera limosa)", "test": "Test B flooded paddy test, visual plant response rating 0-100", "conditions": "250 g ai/ha, Flood, applied to paddy water, evaluated after 13 days", "outline": "(§2)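 Plants were grown to the 2-leaf stage, then pots were flooded to 3 cm above the soil and test compounds were applied directly into the paddy water. Water depth was held there throughout; after 13 days in a greenhouse, injury was scored visually against untreated controls.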"}, "rice (Oryza sativa)": {"tested_on": "rice (Oryza sativa)", "test": "Test B flooded paddy test, visual plant response rating 0-100", "conditions": "250 g ai/ha, Flood, applied to paddy water, evaluated after 13 days", "outline": "as §2"}, "[13]": {"tested_on": "barnyardgrass (Echinochloa crusgalli)", "test": "Test B flooded paddy test, visual plant response rating 0-100", "conditions": "250 g ai/ha, Flood, applied to paddy water, evaluated after 13 days", "outline": "as §2"}, "[14]": {"tested_on": "sedge, umbrella (small-flower umbrella sedge, Cyperus difformis)", "test": "Test B flooded paddy test, visual plant response rating 0-100", "conditions": "250 g ai/ha, Flood, applied to paddy water, evaluated after 13 days", "outline": "as §2"}, "[15]": {"tested_on": "oat, wild (wild oat, Avena fatua)", "test": "Test A postemergence application, visual injury rating 0-100", "conditions": "10 days", "outline": "as §1"}, "[16]": {"tested_on": "ragweed (common ragweed, Ambrosia artemisiifolia)", "test": "Test A postemergence application, visual injury rating 0-100", "conditions": "10 days", "outline": "as §1"}, "soybean (Glycine max) [17]": {"tested_on": "soybean (Glycine max)", "test": "Test A postemergence application, visual injury rating 0-100", "conditions": "10 days", "outline": "as §1"}, "[18]": {"tested_on": "horseweed (Erigeron canadensis)", "test": "Test A postemergence application, visual injury rating 0-100", "conditions": "Postemergence, 125 g ai/ha, 10 days; 0 is no effect, 100 is complete control", "outline": "as §1"}, "[19]": {"tested_on": "blackgrass (Alopecurus myosuroides)", "test": "Test A postemergence application, visual injury rating 0-100", "conditions": "10 days", "outline": "as §1"}, "[20]": {"tested_on": "ryegrass, Italian (italian ryegrass, Lolium multiflorum)", "test": "Test A postemergence application, visual injury rating 0-100", "conditions": "10 days", "outline": "as §1"}, "[21]": {"tested_on": "palmer (palmer amaranth, palmer pigweed, Amaranthus palmeri)", "test": "Test A postemergence application, visual injury rating 0-100", "conditions": "10 days", "outline": "as §1"}, "[22]": {"tested_on": "wheat (Triticum aestivum)", "test": "Test A postemergence application, visual injury rating 0-100", "conditions": "10 days", "outline": "as §1"}, "kochia (Bassia scoparia) [23]": {"tested_on": "kochia (Bassia scoparia)", "test": "Test A postemergence application, visual injury rating 0-100", "conditions": "10 days", "outline": "as §1"}, "[24]": {"tested_on": "barnyardgrass (Echinochloa crus-galli)", "test": "Test A postemergence application, visual injury rating 0-100", "conditions": "10 days", "outline": "as §1"}, "[25]": {"tested_on": "galium (catchweed bedstraw, Galium aparine)", "test": "Test A postemergence application, visual injury rating 0-100", "conditions": "10 days", "outline": "as §1"}, "corn (Zea mays) [26]": {"tested_on": "corn (Zea mays)", "test": "Test A postemergence application, visual injury rating 0-100", "conditions": "10 days", "outline": "as §1"}, "[27]": {"tested_on": "green foxtail (Setaria viridis)", "test": "Test A postemergence application, visual injury rating 0-100", "conditions": "10 days", "outline": "as §1"}, "[28]": {"conditions": "31 g ai/ha, postemergence, 0 = no effect, 100 = complete control"}, "[29]": {"conditions": "Postemergence, 125 g ai/ha, 0 is no effect, 100 is complete control"}},
  "data": [
    {"smiles": "CC(C)OC(=O)C1CCC(NC(=O)C2(C)CN(c3cc(F)cc(Cl)c3)C(=O)O2)C1", "note": "(stereo not drawn) [Compound 2]", "values": [
      {"measurement": "Oat, Wild plant response rating (0-100)", "setting": "[1]; 31 g ai/ha", "value": 0},
      {"measurement": "Oat, Wild plant response rating (0 to 100 scale)", "setting": "[1]; 125 g ai/ha", "value": 70},
      {"measurement": "Ragweed plant response rating (0-100)", "setting": "[2]; 31 g ai/ha", "value": 30},
      {"measurement": "Ragweed plant response rating (0 to 100 scale)", "setting": "[2]; 125 g ai/ha", "value": 0},
      {"measurement": "Soybean plant response rating (0-100)", "setting": "soybean (Glycine max) [3]; 31 g ai/ha", "value": 0},
      {"measurement": "Soybean plant response rating (0 to 100 scale)", "setting": "soybean (Glycine max) [3]; 125 g ai/ha", "value": 20},
      {"measurement": "Blackgrass plant response rating (0-100)", "setting": "[4]; 31 g ai/ha", "value": 0},
      {"measurement": "Blackgrass plant response rating (0 to 100 scale)", "setting": "[4]; 125 g ai/ha", "value": 50},
      {"measurement": "Ryegrass, Italian plant response rating (0-100)", "setting": "[5]; 31 g ai/ha", "value": 20},
      {"measurement": "Ryegrass, Italian plant response rating (0 to 100 scale)", "setting": "[5]; 125 g ai/ha", "value": 80},
      {"measurement": "Amaranth, Palmer plant response rating (0-100)", "setting": "[6]; 31 g ai/ha", "value": 20},
      {"measurement": "Amaranth, Palmer plant response rating (0 to 100 scale)", "setting": "[6]; 125 g ai/ha", "value": 80},
      {"measurement": "Wheat plant response rating (0-100)", "setting": "[7]; 31 g ai/ha", "value": 50},
      {"measurement": "Wheat plant response rating (0 to 100 scale)", "setting": "[7]; 125 g ai/ha", "value": 90},
      {"measurement": "Kochia plant response rating (0-100)", "setting": "kochia (Bassia scoparia) [8]; 31 g ai/ha", "value": 0},
      {"measurement": "Kochia plant response rating (0 to 100 scale)", "setting": "kochia (Bassia scoparia) [8]; 125 g ai/ha", "value": 70},
      {"measurement": "Barnyardgrass plant response rating (0-100)", "setting": "[9]; 31 g ai/ha", "value": 10},
      {"measurement": "Barnyardgrass plant response rating (0 to 100 scale)", "setting": "[9]; 125 g ai/ha", "value": 90},
      {"measurement": "Corn plant response rating (0-100)", "setting": "corn (Zea mays) [10]; 31 g ai/ha", "value": 20},
      {"measurement": "Corn plant response rating (0 to 100 scale)", "setting": "corn (Zea mays) [10]; 125 g ai/ha", "value": 70},
      {"measurement": "Foxtail, Green plant response rating (0-100)", "setting": "[11]; 31 g ai/ha", "value": 0},
      {"measurement": "Foxtail, Green plant response rating (0 to 100 scale)", "setting": "[11]; 125 g ai/ha", "value": 90},
      {"measurement": "Plant response rating, Ducksalad (0 to 100 scale, 0 is no effect and 100 is complete control)", "setting": "[12]", "value": 65},
      {"measurement": "Plant response rating, Rice (0 to 100 scale, 0 is no effect and 100 is complete control)", "setting": "rice (Oryza sativa)", "value": 20},
      {"measurement": "Plant response rating, Barnyardgrass (0 to 100 scale, 0 is no effect and 100 is complete control)", "setting": "[13]", "value": 95},
      {"measurement": "Plant response rating, Sedge, Umbrella (0 to 100 scale, 0 is no effect and 100 is complete control)", "setting": "[14]", "value": 75},
      {"measurement": "Oat, Wild plant response rating (0-100)", "setting": "[15]; [28]", "value": 70},
      {"measurement": "Oat, Wild plant response rating (0 to 100 scale)", "setting": "[15]; [29]", "value": 90},
      {"measurement": "Ragweed plant response rating (0-100)", "setting": "[16]; [28]", "value": 20},
      {"measurement": "Ragweed plant response rating (0 to 100 scale)", "setting": "[16]; [29]", "value": 50},
      {"measurement": "Soybean plant response rating (0-100)", "setting": "soybean (Glycine max) [17]; [28]", "value": 20},
      {"measurement": "Soybean plant response rating (0 to 100 scale)", "setting": "soybean (Glycine max) [17]; [29]", "value": 70},
      {"measurement": "Horseweed plant response rating (0 to 100 scale)", "setting": "[18]", "value": 0},
      {"measurement": "Blackgrass plant response rating (0-100)", "setting": "[19]; [28]", "value": 60},
      {"measurement": "Blackgrass plant response rating (0 to 100 scale)", "setting": "[19]; [29]", "value": 70},
      {"measurement": "Ryegrass, Italian plant response rating (0-100)", "setting": "[20]; [28]", "value": 50},
      {"measurement": "Ryegrass, Italian plant response rating (0 to 100 scale)", "setting": "[20]; [29]", "value": 90},
      {"measurement": "Amaranth, Palmer plant response rating (0-100)", "setting": "[21]; [28]", "value": 0},
      {"measurement": "Amaranth, Palmer / Pigweed, Palmer plant response rating (0 to 100 scale)", "setting": "[21]; [29]", "value": 50},
      {"measurement": "Wheat plant response rating (0-100)", "setting": "[22]; [28]", "value": 80},
      {"measurement": "Wheat plant response rating (0 to 100 scale)", "setting": "[22]; [29]", "value": 90},
      {"measurement": "Kochia plant response rating (0-100)", "setting": "kochia (Bassia scoparia) [23]; [28]", "value": 0},
      {"measurement": "Kochia plant response rating (0 to 100 scale)", "setting": "kochia (Bassia scoparia) [23]; [29]", "value": 80},
      {"measurement": "Barnyardgrass plant response rating (0-100)", "setting": "[24]; [28]", "value": 50},
      {"measurement": "Barnyardgrass plant response rating (0 to 100 scale)", "setting": "[24]; [29]", "value": 100},
      {"measurement": "Galium plant response rating (0-100)", "setting": "[25]; [28]", "value": 60},
      {"measurement": "Galium plant response rating (0 to 100 scale)", "setting": "[25]; [29]", "value": 90},
      {"measurement": "Corn plant response rating (0-100)", "setting": "corn (Zea mays) [26]; [28]", "value": 40},
      {"measurement": "Corn plant response rating (0 to 100 scale)", "setting": "corn (Zea mays) [26]; [29]", "value": 100},
      {"measurement": "Foxtail, Green plant response rating (0-100)", "setting": "[27]; [28]", "value": 0},
      {"measurement": "Foxtail, Green plant response rating (0 to 100 scale)", "setting": "[27]; [29]", "value": 90}
    ]}
  ]
}
